According to patent US10759810B2 (AO “TATKHIMFARMPREPARATY”, priority 2016, dated 2020):
Values after ≈ are worked out from the molar mass of the structure shown.

What was measured:
[1] = system: S. aureus MRSA 1143; assay: MIC on clinical strain; format: cell-based, Staphylococcus aureus
Protocol: (§1) Measurement of antibacterial activity was carried out on the strains of Staphylococcus aureus ATCC 29213 (museum strain), Staphylococcus epidermidis (clinical isolate), Micrococcus luteus (clinical isolate), Bacillus subtilis 168 (museum strain), Escherichia coli ATCC 25922 (museum strain), Salmonella typhimurium TA100 (museum strain), Pseudomonas aeruginosa ATCC 27853 (museum strain). A comparative assessment of the spectrum of antibacterial action on reference strains and clinical isolates of gram-positive microorganisms was carried out using a micromethod for determining the minimum inhibitory concentration (MIC) using serial dilutions in Mueller-Hinton broth using 96-well sterile plates.
(§2) The first lowest concentration of the antibiotic (from a series of successive dilutions), where bacterial growth is not visually determined, is considered to be the minimum inhibitory concentration (MIC).
(§3) For the preparation of inoculum (infectious material used for artificial contamination), intended for the study of antibacterial activity, was used a pure daily culture of bacteria grown on a dense nutrient medium (agar LB medium). In a sterile isotonic solution of sodium chloride, a suspension of microorganisms was prepared, adjusting the inoculum density to 0.5 according to the McFarland standard (1.5·10^8 CFU/ml). Then, the resulting inoculum was diluted to a concentration of 10^7 CFU/ml with LB-broth. The inoculum was used for 15 minutes after preparation; the purity of the bacterial strains was monitored before each experiment.
(§4) 100 μl of Muller-Hinton broth was added to the wells of each plate; the test base was introduced into the first well at a concentration of 128 μg/ml in a volume of 100 μl and its concentration was adjusted to 0.25 μg/ml by consecutive two-fold dilution. […] Each preparation in the experiment was titrated three times. […] In addition, the purity of nutrient media and solvents was monitored. The plates were incubated in a thermostat at […] for 24 hours.
(§5) The growth of cultures was assessed visually, comparing the growth of microorganisms in the presence of test compounds with the growth of culture without them.

[2] = system: S. aureus MRSA 2020; assay: MIC on clinical strain; format: cell-based, Staphylococcus aureus
Protocol: as §1, §2, §3, §4, §5

[3] = system: S. aureus MRSA 981; assay: MIC on clinical strain; format: cell-based, Staphylococcus aureus
Protocol: as §1, §2, §3, §4, §5

[4] = system: S. aureus MRSA 1065; assay: MIC on clinical strain; format: cell-based, Staphylococcus aureus
Protocol: as §1, §2, §3, §4, §5

[5] = system: S. aureus MRSA 983; assay: MIC on clinical strain; format: cell-based, Staphylococcus aureus
Protocol: as §1, §2, §3, §4, §5

[6] = system: S. aureus MRSA 1130; assay: MIC on clinical strain; format: cell-based, Staphylococcus aureus
Protocol: as §1, §2, §3, §4, §5

[7] = system: S. aureus MRSA 1053; assay: MIC on clinical strain; format: cell-based, Staphylococcus aureus
Protocol: as §1, §2, §3, §4, §5

[8] = system: S. aureus MRSA 1168; assay: MIC on clinical strain; format: cell-based, Staphylococcus aureus
Protocol: as §1, §2, §3, §4, §5

[9] = system: S. aureus MRSA 1173; assay: MIC on clinical strain; format: cell-based, Staphylococcus aureus
Protocol: as §1, §2, §3, §4, §5

[10] = system: S. aureus MRSA 967; assay: MIC on clinical strain; format: cell-based, Staphylococcus aureus
Protocol: as §1, §2, §3, §4, §5

[11] = system: S. aureus MRSA 1163; assay: MIC on clinical strain; format: cell-based, Staphylococcus aureus
Protocol: as §1, §2, §3, §4, §5

[12] = system: S. aureus MRSA 1131; assay: MIC on clinical strain; format: cell-based, Staphylococcus aureus
Protocol: as §1, §2, §3, §4, §5

[13] = system: clinical freshly isolated strains of Staphylococcus aureus MRSA; assay: Antibacterial activity (MIC), clinical MRSA strains overall; format: cell-based; conditions: in words, in almost all cases
Protocol: as §1, §2
(§6) For the preparation of inoculum (infectious material used for artificial contamination), intended for the study of antibacterial activity, was used a pure daily culture of bacteria grown on a dense nutrient medium (agar LB medium). […] The inoculum was used for 15 minutes after preparation; the purity of the bacterial strains was monitored before each experiment. […]

[14] = system: ICR mice (CD-1); assay: General acute toxicity, fixed-dose method, intragastric administration; format: in vivo, mouse; conditions: for Number of animals in the group/number of dead animals / LD10 / LD16 / LD50 with confidence interval / LD84: mouse
Protocol: The acute toxicity of compound I-2 was studied using the fixed-dose method in ICR mice (CD-1) (6-8 weeks, 20-25 g) of both sexes, 6 animals per group. The starting dose for testing compound I-2 was 5000 mg/kg. The intragastric (oral) administration of compound I-2 to animals (<2.5 ml/100 g) using a gastric probe was used.

[15] = system: Pseudomonas aeruginosa ATCC 27853 (museum strain); assay: MIC, serial dilutions in Mueller-Hinton broth; format: cell-based
Protocol: as §1, §2, §3, §4, §5

[16] = system: Micrococcus luteus (clinical isolate); assay: MIC, serial dilutions in Mueller-Hinton broth; format: cell-based
Protocol: as §1, §2, §3, §4, §5

[17] = system: Staphylococcus aureus ATCC 29213 (museum strain); assay: MIC, serial dilutions in Mueller-Hinton broth; format: cell-based
Protocol: as §1, §2, §3, §4, §5

[18] = system: Escherichia coli ATCC 25922 (museum strain); assay: MIC, serial dilutions in Mueller-Hinton broth; format: cell-based
Protocol: as §1, §2, §3, §4, §5

[19] = system: Staphylococcus epidermidis (clinical isolate); assay: MIC, serial dilutions in Mueller-Hinton broth; format: cell-based
Protocol: as §1, §2, §3, §4, §5

[20] = system: Salmonella typhimurium TA100 (museum strain); assay: MIC, serial dilutions in Mueller-Hinton broth; format: cell-based
Protocol: as §1, §2, §3, §4, §5

[21] = system: Bacillus subtilis 168 (museum strain); assay: MIC, serial dilutions in Mueller-Hinton broth; format: cell-based
Protocol: as §1, §2, §3, §4, §5

[22] = system: gram-positive microorganisms; assay: Antibacterial activity (MIC), gram-positive strains; format: cell-based; conditions: in words, versus comparison drugs
Protocol: as §1, §2, §6

[23] = system: microorganism strains under study; assay: Antibacterial activity (MIC), whole strain panel; format: cell-based; conditions: in words, from Table 1
Protocol: as §1, §2, §6

[24] = system: gram-negative bacterial strains; assay: Antibacterial activity (MIC), gram-negative strains; format: cell-based; conditions: in words
Protocol: as §1, §2, §6

[25] = inoculum 10^7 CFU/ml, gram-negative
[26] = inoculum 10^7 CFU/ml, gram-positive

Cc1ncc(CN2CCN(c3cc4c(cc3F)c(=O)c(C(=O)O)cn4C3CC3)CC2)c(CO)c1O [Compound I-2, 1-cyclopropyl-6-fluoro-7-(4-((5-hydroxy-4-hydroxymethyl-6-methylpyridine-3-yl)methyl)piperazinyl)-4-oxo-1,4-dihydroquinolin-3-carboxylic acid]
The value of the MIC, S. aureus MRSA 1143 ([1]; inoculum 10^7 CFU/ml): 32 mg/L
The value of the MIC, S. aureus MRSA 2020 ([2]; inoculum 10^7 CFU/ml): 0.25 mg/L
The value of the MIC, S. aureus MRSA 981 ([3]; inoculum 10^7 CFU/ml): 16 mg/L
The value of the MIC, S. aureus MRSA 1065 ([4]; inoculum 10^7 CFU/ml): 32 mg/L
The value of the MIC, S. aureus MRSA 983 ([5]; inoculum 10^7 CFU/ml): 8 mg/L
The value of the MIC, S. aureus MRSA 1130 ([6]; inoculum 10^7 CFU/ml): 16 mg/L
The value of the MIC, S. aureus MRSA 1053 ([7]; inoculum 10^7 CFU/ml): 16 mg/L
The value of the MIC, S. aureus MRSA 1168 ([8]; inoculum 10^7 CFU/ml): 0.25 mg/L
The value of the MIC, S. aureus MRSA 1173 ([9]; inoculum 10^7 CFU/ml): 16 mg/L
The value of the MIC, S. aureus MRSA 967 ([10]; inoculum 10^7 CFU/ml): 16 mg/L
The value of the MIC, S. aureus MRSA 1163 ([11]; inoculum 10^7 CFU/ml): 0.5 mg/L
The value of the MIC, S. aureus MRSA 1131 ([12]; inoculum 10^7 CFU/ml): 16 mg/L
MIC on clinical MRSA strains compared with ceftriaxone [13]: superior to ceftriaxone
changes during the autopsy of mice ([14]; end of experiment, pathomorphological dissection): No changes were observed
hazard class ([14]; from acute toxicity in mice): 4
behaviour after dosing ([14]; mice of both sexes, 5000 mg/kg intragastric): slight inhibition of activity
death of animals (mortality) ([14]; mice of both sexes, 5000 mg/kg intragastric, whole experiment): not observed
abnormalities during the observation period ([14]; mice, 5000 mg/kg intragastric): no abnormalities were observed
time until animals began to take food and water ([14]; mice, 5000 mg/kg intragastric): 1.5 to 2 h
time until behavior of animals returned to normal ([14]; mice, 5000 mg/kg intragastric): 20 to 30 min
mean lethal dose ([14]; mice, intragastric, up to 5000 mg/kg): not detected
Number of animals in the group/number of dead animals ([14]; females, 5000 mg/kg intragastric): 6/0
LD10 ([14]; females, intragastric): >5000 mg/kg
LD16 ([14]; females, intragastric): >5000 mg/kg
LD50 with confidence interval ([14]; females, intragastric): >5000 mg/kg
LD84 ([14]; females, intragastric): >5000 mg/kg
Number of animals in the group/number of dead animals ([14]; males, 5000 mg/kg intragastric): 6/0
LD10 ([14]; males, intragastric): >5000 mg/kg
LD16 ([14]; males, intragastric): >5000 mg/kg
LD50 with confidence interval ([14]; males, intragastric): >5000 mg/kg
LD84 ([14]; males, intragastric): >5000 mg/kg
MIC, P. aerugenosa [15, 25]: >64 mg/L
MIC, M. luteus [16, 26]: 4 mg/L (≈ 8.29 µM)
MIC, S. aureus [17, 26]: 2 mg/L (≈ 4.14 µM)
MIC, E. coli [18, 25]: 2 mg/L (≈ 4.14 µM)
MIC, S. epidermidis [19, 26]: 2 mg/L (≈ 4.14 µM)
MIC, S. typhimurium [20, 25]: 2 mg/L (≈ 4.14 µM)
MIC, B. subtilis [21, 26]: <2 mg/L
antibacterial action with respect to gram-positive microorganisms [22]: comparable with the comparison drugs
antibacterial activity against the microorganism strains under study [23]: most active
antibacterial activity in relation to gram-negative bacterial strains [24]: low antibacterial activity

CN[C@H](CC(C)C)C(=O)N[C@H]1C(=O)N[C@@H](CC(N)=O)C(=O)N[C@H]2C(=O)N[C@H]3C(=O)N[C@H](C(=O)N[C@H](C(=O)O)c4cc(O)cc(O)c4-c4cc3ccc4O)[C@H](O)c3ccc(c(Cl)c3)Oc3cc2cc(c3O[C@@H]2O[C@H](CO)[C@@H](O)[C@H](O)[C@H]2O[C@H]2C[C@](C)(N)[C@H](O)[C@H](C)O2)Oc2ccc(cc2Cl)[C@H]1O [Vancomycin, vancomycin]
MIC ([1]; Staphylococcus aureus, MRSA, read-out: The value of the MIC, S. aureus MRSA 1143): 1 mg/L (≈ 0.69 µM)
MIC ([2]; Staphylococcus aureus, MRSA, read-out: The value of the MIC, S. aureus MRSA 2020): 0.5 mg/L (≈ 0.345 µM)
MIC ([3]; Staphylococcus aureus, MRSA, read-out: The value of the MIC, S. aureus MRSA 981): 2 mg/L (≈ 1.38 µM)
MIC ([4]; Staphylococcus aureus, MRSA, read-out: The value of the MIC, S. aureus MRSA 1065): 1 mg/L (≈ 0.69 µM)
MIC ([5]; Staphylococcus aureus, MRSA, read-out: The value of the MIC, S. aureus MRSA 983): 2 mg/L (≈ 1.38 µM)
MIC ([6]; Staphylococcus aureus, MRSA, read-out: The value of the MIC, S. aureus MRSA 1130): 1 mg/L (≈ 0.69 µM)
MIC ([7]; Staphylococcus aureus, MRSA, read-out: The value of the MIC, S. aureus MRSA 1053): 2 mg/L (≈ 1.38 µM)
MIC ([8]; Staphylococcus aureus, MRSA, read-out: The value of the MIC, S. aureus MRSA 1168): 0.5 mg/L (≈ 0.345 µM)
MIC ([9]; Staphylococcus aureus, MRSA, read-out: The value of the MIC, S. aureus MRSA 1173): 2 mg/L (≈ 1.38 µM)
MIC ([10]; Staphylococcus aureus, MRSA, read-out: The value of the MIC, S. aureus MRSA 967): 4 mg/L (≈ 2.76 µM)
MIC ([11]; Staphylococcus aureus, MRSA, read-out: The value of the MIC, S. aureus MRSA 1163): 2 mg/L (≈ 1.38 µM)
MIC ([12]; Staphylococcus aureus, MRSA, read-out: The value of the MIC, S. aureus MRSA 1131): 0.5 mg/L (≈ 0.345 µM)
MIC ([15]; Pseudomonas aeruginosa, ATCC27853, read-out: MIC, P. aerugenosa): > 64 mg/L
MIC ([16]; Micrococcus luteus, read-out: MIC, M. luteus): 4 mg/L (≈ 2.76 µM)
MIC ([17]; Staphylococcus aureus, ATCC29213, read-out: MIC, S. aureus): 4 mg/L (≈ 2.76 µM)
MIC ([18]; Escherichia coli, ATCC25922, read-out: MIC, E. coli): 64 mg/L (≈ 44.2 µM)
MIC ([19]; Staphylococcus epidermidis, read-out: MIC, S. epidermidis): 4 mg/L (≈ 2.76 µM)
MIC ([20]; Salmonella enterica, TYPHIMURIUM, read-out: MIC, S. typhimurium): 64 mg/L (≈ 44.2 µM)
MIC ([21]; Bacillus subtilis, read-out: MIC, B. subtilis): 64 mg/L (≈ 44.2 µM)
